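Briefly, cells in 96-well plates were exposed to five compound concentrations for 48 h, and endpoints were estimated by linear interpolation. GI50: concentration for 50% inhibition of growth.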 Activity calls are given as the source filed them. Rule as the data show it: active = GI50 up to about 1.1 µM and inactive = higher.
Assays:
Experiment in all cases: inhibition of tumour cell growth, NCI panel, 48 h
SNB-75 = tested on: SNB-75
U-251 = tested on: U-251
UACC-257 = tested on: UACC-257
OVCAR-3 = tested on: OVCAR-3
NCI-H23 = tested on: NCI-H23
OVCAR-8 = tested on: OVCAR-8
SK-MEL-2 = tested on: SK-MEL-2
SK-OV-3 = tested on: SK-OV-3
A549 = tested on: A549
SN12C = tested on: SN12C
XF498 = tested on: XF498
SF-295 = tested on: SF-295
DLD-1 = tested on: DLD-1
A498 = tested on: A498
KM12 = tested on: KM12
MCF7 = tested on: MCF7
MDA-N = tested on: MDA-N
NCI/ADR-RES = tested on: NCI/ADR-RES
MDA-MB-435 = tested on: MDA-MB-435
PC-3 = tested on: PC-3

| Structure (SMILES) | GI50 (SNB-75) | GI50 (U-251) | GI50 (UACC-257) | GI50 (OVCAR-3) | GI50 (NCI-H23) | GI50 (OVCAR-8) | GI50 (SK-MEL-2) | GI50 (SK-OV-3) | GI50 (A549) | GI50 (SN12C) | GI50 (XF498) | GI50 (SF-295) | GI50 (DLD-1) | GI50 (A498) | GI50 (KM12) | GI50 (MCF7) | GI50 (MDA-N) | GI50 (NCI/ADR-RES) | GI50 (MDA-MB-435) | GI50 (PC-3) |
| --- | --- | --- | --- | --- | --- | --- | --- | --- | --- | --- | --- | --- | --- | --- | --- | --- | --- | --- | --- | --- |
| COc1ccc(C2C(C(=O)O)=C(CO)Oc3cc4c(cc32)OCO4)cc1 (configuration not stated) | 27.4 µM (inactive) | > 100 µM (inactive) | > 100 µM (inactive) | > 100 µM (inactive) | > 100 µM (inactive) | > 100 µM (inactive) | > 100 µM (inactive) | > 100 µM (inactive) | > 100 µM (inactive) | > 100 µM (inactive) | > 100 µM (inactive) | > 100 µM (inactive) | > 100 µM (inactive) | – | – | – | – | – | – | – |
| C#CCOc1c(C(=O)OCC)c(=O)n(C)c2ccccc12 | 54.5 µM (inactive) | > 100 µM (inactive) | – | > 100 µM (inactive) | > 100 µM (inactive) | > 100 µM (inactive) | > 100 µM (inactive) | > 100 µM (inactive) | – | > 100 µM (inactive) | 72.6 µM (inactive) | > 100 µM (inactive) | > 100 µM (inactive) | > 100 µM (inactive) | – | – | – | – | – | – |
| COC(=O)C(Cc1nc2ccc(Cl)cc2nc1O)C(=O)C(=O)Nc1ccccc1[N+](=O)[O-] (configuration not stated) | > 100 µM (inactive) | > 100 µM (inactive) | > 100 µM (inactive) | > 100 µM (inactive) | > 100 µM (inactive) | > 100 µM (inactive) | > 100 µM (inactive) | > 100 µM (inactive) | > 100 µM (inactive) | > 100 µM (inactive) | > 100 µM (inactive) | > 100 µM (inactive) | > 100 µM (inactive) | > 100 µM (inactive) | > 100 µM (inactive) | – | – | – | – | – |
| CN(C)CCNC(=O)Cn1ccc(=O)c2ccc([N+](=O)[O-])cc21 | – | > 100 µM (inactive) | > 100 µM (inactive) | 38.2 µM (inactive) | > 100 µM (inactive) | – | > 100 µM (inactive) | > 100 µM (inactive) | > 100 µM (inactive) | > 100 µM (inactive) | – | > 100 µM (inactive) | – | > 100 µM (inactive) | > 100 µM (inactive) | > 100 µM (inactive) | > 100 µM (inactive) | > 100 µM (inactive) | > 100 µM (inactive) | > 100 µM (inactive) |
| COC(=O)c1nn(C(=N)c2ccc(Cl)cc2)c2c1CCC2 | > 100 µM (inactive) | > 100 µM (inactive) | > 100 µM (inactive) | – | > 100 µM (inactive) | > 100 µM (inactive) | > 100 µM (inactive) | > 100 µM (inactive) | > 100 µM (inactive) | > 100 µM (inactive) | > 100 µM (inactive) | > 100 µM (inactive) | > 100 µM (inactive) | > 100 µM (inactive) | > 100 µM (inactive) | – | – | – | – | – |
| Cn1nc(N)nc1N=S(C)(C)=N | > 100 µM (inactive) | > 100 µM (inactive) | > 100 µM (inactive) | > 100 µM (inactive) | > 100 µM (inactive) | > 100 µM (inactive) | > 100 µM (inactive) | > 100 µM (inactive) | > 100 µM (inactive) | > 100 µM (inactive) | > 100 µM (inactive) | > 100 µM (inactive) | – | > 100 µM (inactive) | > 100 µM (inactive) | – | – | – | – | – |
| NC(CCOCCP(=O)(O)O)C(=O)O (configuration not stated) | > 100 µM (inactive) | > 100 µM (inactive) | > 100 µM (inactive) | > 100 µM (inactive) | > 100 µM (inactive) | > 100 µM (inactive) | > 100 µM (inactive) | > 100 µM (inactive) | > 100 µM (inactive) | > 100 µM (inactive) | – | > 100 µM (inactive) | – | – | > 100 µM (inactive) | > 100 µM (inactive) | > 100 µM (inactive) | > 100 µM (inactive) | > 100 µM (inactive) | > 100 µM (inactive) |
| CC(SC1=CC(=O)c2c(Cl)ccc(O)c2C1=O)C(=O)O (configuration not stated) | 16.9 µM (inactive) | 17.7 µM (inactive) | 15.8 µM (inactive) | – | > 10 µM (inactive) | 18.2 µM (inactive) | 17.5 µM (inactive) | – | 22.4 µM (inactive) | 16.7 µM (inactive) | 19.9 µM (inactive) | 19 µM (inactive) | 17.3 µM (inactive) | 67.1 µM (inactive) | 18 µM (inactive) | – | – | – | – | – |
| CCCOc1nc(N)c2cnn(C3CCCCO3)c2n1 (configuration not stated) | 56.8 µM (inactive) | > 100 µM (inactive) | > 100 µM (inactive) | > 100 µM (inactive) | > 100 µM (inactive) | > 100 µM (inactive) | > 100 µM (inactive) | > 100 µM (inactive) | > 100 µM (inactive) | > 100 µM (inactive) | – | > 100 µM (inactive) | > 100 µM (inactive) | – | > 100 µM (inactive) | – | – | – | – | – |
| Cc1n[nH]c(N)c1C(N)=O | > 100 µM (inactive) | > 10 µM (inactive) | > 100 µM (inactive) | – | > 100 µM (inactive) | > 100 µM (inactive) | > 100 µM (inactive) | > 100 µM (inactive) | > 100 µM (inactive) | > 100 µM (inactive) | > 100 µM (inactive) | > 100 µM (inactive) | > 100 µM (inactive) | > 100 µM (inactive) | > 100 µM (inactive) | – | – | – | – | – |
| S=C(S)NCC1CCC(CNC(=S)S)CC1 (configuration not stated) | 34.9 µM (inactive) | 20.1 µM (inactive) | 26.3 µM (inactive) | 16.5 µM (inactive) | 44.5 µM (inactive) | 20.9 µM (inactive) | 23.3 µM (inactive) | > 100 µM (inactive) | > 100 µM (inactive) | 20.6 µM (inactive) | – | > 100 µM (inactive) | – | > 100 µM (inactive) | 19.7 µM (inactive) | 17.9 µM (inactive) | 26.7 µM (inactive) | 67.8 µM (inactive) | 23.3 µM (inactive) | 17.8 µM (inactive) |
| CCOC(=O)/C(=C\NC#N)c1nc2ccccc2[nH]1 | > 100 µM (inactive) | – | > 100 µM (inactive) | > 100 µM (inactive) | > 100 µM (inactive) | > 100 µM (inactive) | – | > 100 µM (inactive) | > 100 µM (inactive) | > 100 µM (inactive) | – | > 100 µM (inactive) | – | > 100 µM (inactive) | > 100 µM (inactive) | > 100 µM (inactive) | > 100 µM (inactive) | > 100 µM (inactive) | > 100 µM (inactive) | – |
| O=C1NC(=O)C2(CCc3ccc(N(CCCl)CCCl)cc32)N1 (configuration not stated) | 7.48 µM (inactive) | 6.78 µM (inactive) | 16.4 µM (inactive) | 18.4 µM (inactive) | 6.5 µM (inactive) | 14.1 µM (inactive) | 21.7 µM (inactive) | 16.1 µM (inactive) | 8.36 µM (inactive) | 5.37 µM (inactive) | – | 7.5 µM (inactive) | 19 µM (inactive) | 16.9 µM (inactive) | 29.3 µM (inactive) | 10.1 µM (inactive) | – | 9.77 µM (inactive) | – | – |
| O=S(=O)(O)c1ccc(-c2c3nc(c(-c4ccc(S(=O)(=O)O)cc4)c4ccc([nH]4)c(-c4ccc(S(=O)(=O)O)cc4)c4nc(c(-c5ccc(S(=O)(=O)O)cc5)c5ccc2[nH]5)C=C4)C=C3)cc1 | > 100 µM (inactive) | 60.5 µM (inactive) | > 100 µM (inactive) | 36.3 µM (inactive) | 64.4 µM (inactive) | > 100 µM (inactive) | > 100 µM (inactive) | 58.3 µM (inactive) | 55.6 µM (inactive) | 42.7 µM (inactive) | – | 47.4 µM (inactive) | – | > 100 µM (inactive) | 51.5 µM (inactive) | > 100 µM (inactive) | – | 90.6 µM (inactive) | 61 µM (inactive) | > 100 µM (inactive) |
| CC1C(O)[C@@]2(OC[C@@]34C(=O)CC5(O)[C@H](CCC6Cc7nc8c(nc7C[C@]65C)CC5CC[C@@H]6C7=C[C@H]9O[C@@]%10(O[C@@](C)(CO)C[C@@H]%10O)C(C)[C@@]9(O)[C@]7(C)[C@@H](O)CC6[C@]5(C)C8)C3=CC[C@H]4C2C)OC1(C)C (some centres not stated) | < 0.000355 µM (active) | < 0.000355 µM (active) | 0.00524 µM (active) | 1.26 µM (inactive) | 0.00127 µM (active) | 0.247 µM (active) | 0.000524 µM (active) | 0.00226 µM (active) | < 0.000355 µM (active) | 0.628 µM (active) | – | < 0.000355 µM (active) | 0.0607 µM (active) | < 0.000355 µM (active) | > 3.55 µM (inactive) | < 0.000355 µM (active) | – | > 3.55 µM (inactive) | – | – |
| OC[C@H]1NC[C@@H](O)[C@@H](O)[C@H]1O | 9.29 µM (inactive) | > 100 µM (inactive) | > 100 µM (inactive) | > 100 µM (inactive) | > 100 µM (inactive) | > 100 µM (inactive) | > 100 µM (inactive) | > 100 µM (inactive) | – | > 100 µM (inactive) | – | > 100 µM (inactive) | – | > 100 µM (inactive) | > 100 µM (inactive) | > 100 µM (inactive) | > 100 µM (inactive) | > 100 µM (inactive) | > 100 µM (inactive) | > 100 µM (inactive) |
| OC(c1ccc(Cl)cc1)(c1ccc(Cl)cc1)c1cncnc1 | 21.2 µM (inactive) | 19.3 µM (inactive) | 19.2 µM (inactive) | 17.1 µM (inactive) | 26.3 µM (inactive) | 21.4 µM (inactive) | 16.6 µM (inactive) | > 10 µM (inactive) | – | 26.7 µM (inactive) | – | 19.1 µM (inactive) | – | 21.2 µM (inactive) | 17.6 µM (inactive) | 25.9 µM (inactive) | 19.2 µM (inactive) | 26.4 µM (inactive) | 18.3 µM (inactive) | 12.9 µM (inactive) |

From ChEMBL document CHEMBL1201862, “PubChem BioAssay data set” (2004)
